Legend:
[1] = target: T1, recombinant human Wee1A kinase (Homo sapiens, UniProt P30291); assay: Wee1A kinase binding assay (LanthaScreen Eu time-resolved FRET); conditions: 30 nM tracer 178, 5 nM Wee1A kinase, 2 nM Eu-labeled antibody; 60 minutes at room temperature; read-out: Wee1A kinase Binding IC50
T1 construct: full length Wee1 kinase was expressed by baculovirus in insect cells; purchased Invitrogen PV3817; host or cells: insect cells (baculovirus)
Outline: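 Full-length, baculovirus-expressed GST-tagged Wee1A (5 nM) was mixed with 2 nM Eu-anti-GST antibody, 30 nM kinase tracer 178 and compound (1% DMSO). Buffer was 50 mM HEPES pH 7.5, 10 mM MgCl2, 1 mM EGTA, 0.01% Brij-35, incubated 60 min at room temperature. TR-FRET 665/615 nm emission ratios from duplicates were curve-fitted.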

[2] = target: T2, Myt1 kinase (recombinant PMYT-1) (Homo sapiens, UniProt Q99640); assay: Myt1 kinase binding assay (LanthaScreen Eu Kinase Binding Assay); conditions: 3 nM tracer 178, 2.5 nM PMYT-1, 1 nM Eu-labeled antibody; read-out: Myt1 kinase Binding IC50
T2 construct: full length PMYT-1 was expressed by baculovirus in insect cells; purchased Invitrogen A30984; host or cells: insect cells (baculovirus)
T2 sequence (Q99640 1-499): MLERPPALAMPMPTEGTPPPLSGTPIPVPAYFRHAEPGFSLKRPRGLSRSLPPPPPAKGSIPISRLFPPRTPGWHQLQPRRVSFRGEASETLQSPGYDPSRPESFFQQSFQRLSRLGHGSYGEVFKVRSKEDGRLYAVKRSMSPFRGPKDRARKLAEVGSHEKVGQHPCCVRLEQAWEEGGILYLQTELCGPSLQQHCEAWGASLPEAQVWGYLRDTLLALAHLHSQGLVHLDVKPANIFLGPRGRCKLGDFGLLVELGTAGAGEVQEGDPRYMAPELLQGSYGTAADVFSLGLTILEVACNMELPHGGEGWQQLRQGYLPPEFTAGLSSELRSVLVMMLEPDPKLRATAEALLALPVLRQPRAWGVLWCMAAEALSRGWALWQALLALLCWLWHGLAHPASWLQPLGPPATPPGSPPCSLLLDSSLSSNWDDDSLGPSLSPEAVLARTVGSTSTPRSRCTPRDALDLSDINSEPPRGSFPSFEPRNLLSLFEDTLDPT
Outline: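 Compound binding to Myt1 kinase was assessed using the LanthaScreen Eu Kinase Binding Assay. This europium-based binding format was applied to quantify how strongly each compound bound to the Myt1 enzyme, and the binding affinity was reported for each compound as an IC50 value.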

[3] = target: T3, Myt1 kinase (CDK1 Thr14 phosphorylation in DAOY medulloblastoma cells) (Homo sapiens, UniProt Q99640); assay: AlphaLISA assay, Myt1 kinase target engagement (phospho-CDK1 Thr14) in DAOY cells; assay type: cell-based; conditions: 4 h treatment, read-out: CDK1 Thr14 Phosphorylation EC50
T3 construct: pCDK1 Thr14 AlphaLISA read-out
T3 sequence (Q99640 1-499): T2 sequence (Q99640 1-499)
Outline: (§1)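 Cells seeded at 10,000 (DAOY) or 20,000 (ACHN) per well, treated 24 h later for 4 h with compound at 7–5000 nM. Lysates analysed by AlphaLISA SureFire Ultra phospho-CDK1 (Thr14) with donor/acceptor beads; EC50 from dose-response curves.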

[4] = target: T4, Wee1A kinase (CDK1 Tyr15 phosphorylation in ACHN renal cell carcinoma cells) (Homo sapiens, UniProt P30291); assay: High-content imaging of pCdk1 Y15, Wee1A kinase target engagement in ACHN cells; assay type: cell-based; conditions: 4 h treatment, nuclear positivity for pCdk1 Y15 vs DMSO control, read-out: CDK1 Tyr15 Phosphorylation EC50
T4 construct: pCDK1 Tyr15 immunofluorescence read-out
T4 sequence (P30291 whole entry): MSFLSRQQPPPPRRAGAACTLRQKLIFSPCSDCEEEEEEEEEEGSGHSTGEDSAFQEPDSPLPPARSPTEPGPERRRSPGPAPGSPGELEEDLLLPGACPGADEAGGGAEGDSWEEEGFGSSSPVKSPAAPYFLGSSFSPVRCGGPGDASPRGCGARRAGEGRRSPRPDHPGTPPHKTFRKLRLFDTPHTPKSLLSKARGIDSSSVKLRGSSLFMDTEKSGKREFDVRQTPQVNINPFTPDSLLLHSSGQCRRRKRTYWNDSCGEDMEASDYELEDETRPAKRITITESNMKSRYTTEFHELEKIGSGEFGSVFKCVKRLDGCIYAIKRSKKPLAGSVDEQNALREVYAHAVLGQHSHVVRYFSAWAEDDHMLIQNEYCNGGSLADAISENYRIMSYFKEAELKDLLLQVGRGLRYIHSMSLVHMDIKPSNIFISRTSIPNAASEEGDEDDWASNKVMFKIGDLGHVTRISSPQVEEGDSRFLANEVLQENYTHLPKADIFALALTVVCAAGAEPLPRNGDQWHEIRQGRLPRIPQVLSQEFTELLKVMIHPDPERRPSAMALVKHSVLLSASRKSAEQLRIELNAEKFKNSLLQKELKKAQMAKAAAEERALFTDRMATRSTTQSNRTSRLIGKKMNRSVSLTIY
Outline: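 EC50 values come from the per-well fraction of cells with nuclear pCdk1 Y15 staining, normalised to DMSO control, by automated immunofluorescence imaging. Cells were ACHN renal carcinoma, treated 4 h with compound at 7–5,000 nM or 0.3–200 nM.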

ACHN cells = assay: Cell Titer Glo viability assay, ACHN cells; assay type: cell-based; conditions: Homo sapiens, 144 h, absolute EC50
Outline: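 Cells grown in MEM with 10% FCS were seeded at 500 (A427), 400 (ACHN) or 250 (DAOY) per well and treated the next day with compound at 17 to 10 000 nM. Viability relative to untreated control was read at 144 h by CellTiter-Glo 2.0.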

DAOY cells = assay: Cell Titer Glo viability assay, DAOY cells; assay type: cell-based; conditions: Homo sapiens, 144 h, absolute EC50
Experimental: (§2) Each of an ACHN renal cell carcinoma cell line (ATCC) and a DAOY medulloblastoma cell line, and an A427 lung cancer line were cultured in Minimum Essential Medium Eagle supplemented with 10% fetal calf serum (Sigma), 1% Penicillin-Streptomycin and 10 mM HEPES buffer (HyClone). Cell cultures were kept in a humidified incubator at 37 °C and 5% CO2. Cells were routinely tested for Mycoplasma contamination.
(§3) ACHN cells, DAOY cells, or A427 cells were seeded at a density of 400, 250, or 500 cells per well respectively, in tissue culture treated 384 well plates (Corning Costar). After overnight incubation, cells were treated with drugs at concentrations ranging from 17 to 10 000 nM. Viability compared to untreated control was assessed at 144 h using Cell Titer Glo assay 2.0 (Promega). […] “NT” means the compounds was not tested in the indicated cells.

A427 cells = assay: Cell Titer Glo viability assay, A427 cells; assay type: cell-based; conditions: Homo sapiens, A-427, 144 h, absolute EC50
Experimental: as §2, §3

[5] = target: T5, Myt1 kinase (CDK1 Thr14 phosphorylation in ACHN renal cell carcinoma cells) (Homo sapiens, UniProt Q99640); assay: AlphaLISA assay, Myt1 kinase target engagement (phospho-CDK1 Thr14) in ACHN cells; assay type: cell-based; conditions: ACHN cells (marked *); 4 h treatment
T5 construct: pCDK1 Thr14 AlphaLISA read-out
T5 sequence (Q99640 1-499): T2 sequence (Q99640 1-499)
Outline: as §1

T1 sequence (P30291 whole entry): as above

| IC50 [1] [nM] | IC50 [2] [nM] | EC50 [3] [nM] | EC50 [4] [nM] | EC50 (ACHN cells) [nM] | EC50 [5] [nM] | Compound | EC50 (DAOY cells) [nM] | EC50 (A427 cells) [nM] |
| --- | --- | --- | --- | --- | --- | --- | --- | --- |
| < 10 | 20 to 100 | 200 to 500 | < 100 | ≤ 100 |  | C=CCn1c(=O)c2cnc(Nc3ccc(OCC(F)(F)F)cc3)nc2n1-c1cccc(OC2CCN(C)CC2)n1 [Compound 291, 2-allyl-1-[6-(1-methyl-4-piperidyloxy)-2-pyridyl]-6-[p-(2,2,2-trifluoroethoxy)phenylamino]-1,2-dihydro-3H-1,2,5,7-tetraazainden-3-one] | ≤ 100 | ≤ 100 |
| < 10 | 100 to 500 |  | < 100 | ≤ 100 |  | C=CCn1c(=O)c2cnc(Nc3cc(C)cc(F)c3)nc2n1-c1cccc(NC2CCN(C)CC2)n1 [Compound 161, 2-allyl-6-(3-fluoro-5-toluidino)-1-[6-(1-methyl-4-piperidylamino)-2-pyridyl]-1,2-dihydro-3H-1,2,5,7-tetraazainden-3-one] |  | 100 to 500 |
| < 10 | 20 to 100 |  | < 100 | ≤ 100 | 200 to 500 | C=CCn1c(=O)c2cnc(Nc3ccc4c(ccn4C)c3)nc2n1-c1cccc(OC2CCN(C)CC2)n1 [Compound 186, 2-allyl-6-((1-methyl-1H-indol-5-yl)amino)-1-(6-((1-methylpiperidin-4-yl)oxy)pyridin-2-yl)-1,2-dihydro-3H-pyrazolo[3,4-d]pyrimidin-3-one] | ≤ 100 |  |
| < 10 | 20 to 100 | 200 to 500 | < 100 | ≤ 100 |  | CN1CCC(Oc2cccc(-n3c4nc(Nc5ccc6c(cnn6C)c5)ncc4c(=O)n3C)n2)CC1 [Compound 121, 2-methyl-6-(1-methyl-1H-indazol-5-ylamino)-1-[6-(1-methyl-4-piperidyloxy)-2-pyridyl]-1,2-dihydro-3H-1,2,5,7-tetraazainden-3-one] | ≤ 100 |  |
| < 10 | 20 to 100 | 200 to 500 | < 100 | ≤ 100 |  | C=CCn1c(=O)c2cnc(Nc3ccnc(C)c3)nc2n1-c1cccc(OC2CCN(C)CC2)n1 [Compound 112, 1-{6-[(1-methylpiperidin-4-yl)oxy]pyridin-2-yl}-6-[(2-methylpyridin-4-yl)amino]-2-(prop-2-en-1-yl)-1H,2H,3H-pyrazolo[3,4-d]pyrimidin-3-one] | 100 to 500 |  |
| < 10 | 20 to 100 | 200 to 500 | < 100 | ≤ 100 |  | C=CCn1c(=O)c2cnc(Nc3cc(C)cc(F)c3)nc2n1-c1cccc(OC2CCN(C)CC2)n1 [Compound 205, 6-[(3-fluoro-5-methylphenyl)amino]-1-{6-[(1-methylpiperidin-4-yl)oxy]pyridin-2-yl}-2-(prop-2-en-1-yl)-1H,2H,3H-pyrazolo[3,4-d]pyrimidin-3-one] | 100 to 500 |  |
| < 10 | < 20 | < 200 | < 100 | ≤ 100 |  | C=CCn1c(=O)c2cnc(Nc3ccc4occc4c3)nc2n1-c1cccc(OC2CCN(C)CC2)n1 [Compound 309, 2-allyl-6-(1-benzofuran-5-ylamino)-1-[6-(1-methyl-4-piperidyloxy)-2-pyridyl]-1,2-dihydro-3H-1,2,5,7-tetraazainden-3-one] | ≤ 100 |  |
| < 10 | < 20 | < 200 | < 100 | ≤ 100 |  | C=CCn1c(=O)c2cnc(Nc3ccc4ccoc4c3)nc2n1-c1cccc(OC2CCN(C)CC2)n1 [Compound 308, 2-allyl-6-(1-benzofuran-6-ylamino)-1-[6-(1-methyl-4-piperidyloxy)-2-pyridyl]-1,2-dihydro-3H-1,2,5,7-tetraazainden-3-one] | ≤ 100 |  |

The next lines start with the molecule.

| Compound | IC50 [1] [nM] | IC50 [2] [nM] | EC50 [3] [nM] | EC50 [4] [nM] | EC50 (ACHN cells) [nM] | EC50 [5] [nM] | EC50 (DAOY cells) [nM] | EC50 (A427 cells) [nM] |
| --- | --- | --- | --- | --- | --- | --- | --- | --- |
| C=CCn1c(=O)c2cnc(Nc3cccc(C)c3)nc2n1-c1cccc(OC2CCNCC2)n1 [Compound 296, 2-allyl-1-(6-(piperidin-4-yloxy)pyridin-2-yl)-6-(m-tolylamino)-1,2-dihydro-3H-pyrazolo[3,4-d]pyrimidin-3-one] | < 10 | 20 to 100 | 200 to 500 | < 100 | ≤ 100 |  | ≤ 100 | ≤ 100 |
| C=CCn1c(=O)c2cnc(Nc3ccc4c(cnn4C)c3)nc2n1-c1cccc(OC2CCN(C)CC2)n1 [Compound 109, 2-allyl-6-(1-methyl-1H-indazol-5-ylamino)-1-[6-(1-methyl-4-piperidyloxy)-2-pyridyl]-1,2-dihydro-3H-1,2,5,7-tetraazainden-3-one] | < 10 | < 20 | < 200 | < 100 | ≤ 100 |  | ≤ 100 | ≤ 100 |
| C=CCn1c(=O)c2cnc(Nc3ccc4c(c3)ncn4C)nc2n1-c1cccc(OC2CCN(C)CC2)n1 [Compound 211, 2-allyl-6-(1-methyl-1H-1,3-benzimidazol-5-ylamino)-1-[6-(1-methyl-4-piperidyloxy)-2-pyridyl]-1,2-dihydro-3H-1,2,5,7-tetraazainden-3-one] | < 10 | 20 to 100 | < 200 | < 100 | ≤ 100 |  | ≤ 100 | ≤ 100 |
| C=CCn1c(=O)c2cnc(Nc3ccc4sncc4c3)nc2n1-c1cccc(OC2CCN(C)CC2)n1 [Compound 320, 2-allyl-6-(1,2-benzisothiazol-5-ylamino)-1-[6-(1-methyl-4-piperidyloxy)-2-pyridyl]-1,2-dihydro-3H-1,2,5,7-tetraazainden-3-one] | < 10 | < 20 | 200 to 500 | < 100 | ≤ 100 |  | ≤ 100 |  |
| C=CCn1c(=O)c2cnc(Nc3ccc4c(cnn4C)c3)nc2n1-c1cccc(OC2CCNCC2)n1 [Compound 106, 2-allyl-6-(1-methyl-1H-indazol-5-ylamino)-1-[6-(4-piperidyloxy)-2-pyridyl]-1,2-dihydro-3H-1,2,5,7-tetraazainden-3-one] | < 10 | 20 to 100 | 200 to 500 | < 100 | ≤ 100 |  | 100 to 500 |  |
| C=CCn1c(=O)c2cnc(Nc3cnn(C)c3)nc2n1-c1cccc(OC2CCN(C)CC2)n1 [Compound 137, 2-allyl-1-[6-(1-methyl-4-piperidyloxy)-2-pyridyl]-6-(1-methyl-4-pyrazolylamino)-1,2-dihydro-3H-1,2,5,7-tetraazainden-3-one] | < 10 | 20 to 100 |  | < 100 | ≤ 100 |  |  | ≤ 100 |

Reference: US20260364080A1, “PYRAZOLO-PYRIMIDINONE COMPOUNDS FOR USE IN METHODS OF INHIBITING WEE1 A KINASE” (Acrivon Therapeutics, Inc., priority 2023, published 2026)
